Test results taken from patent EP2714063B1, “VEGFR2/3-ACTIVATING AGENT FOR USE IN THE TREATMENT OF COGNITIVE DYSFUNCTIONS” (priority 2011, dated 2012).

Columns and labels:
[1] = tested on: VEGFD; type: cell-based, C57BL/6 mice; conditions: treatment from DIV5 to DIV10; 1 µM TTX, 10 µM MK801, 10 µM nifedipine
Method: RNA extraction and cDNA synthesis. Total RNA was isolated at DIV10 to DIV13 from hippocampal primary neuron cultures or isolated brain tissues with Rneasy Mini Kit (Qiagen, Hilden, Germany) including an optional Dnase I treatment at room temperature for 15 min according to manufacturer's instructions (Qiagen). 1.2 µg of extracted RNA was reverse transcribed into first strand cDNA using High Capacity cDNA Reverse Transcription kit (Applied Biosystems, Foster City, CA).
Real time quantitative PCR. Quantitative reverse transcriptase PCR (qRT-PCR) was done on an ABI7300 thermal cycler using Universal qRT-PCR master mix with TaqMan Gene Expression Assays for the indicated genes (Applied Biosystems). The following TaqMan Gene Expression Assays were used in this study: Gusb (Mm00446953_m1), cFos (Mm00487425_m1), VEGFD (Mm00438965_m1), VEGFC (Mm01202432_m1), VEGF (Mm01281449_m1), VEGFR3 (Mm01292618_m1), beta-actin (Mm00607939_s1), beta-2 microglobulin (Mm00437762_m1), CBP (Mm01342435_m1), p38 MAPK alpha (Mm00442497_m1), p38 MAPK beta (Mm00440955_m1). Expression of target genes was normalized against the expression of Gusb as endogenous control gene. Data were derived from at least 5 independent experiments.

[2] = tested on: hippocampal neurons; assay: Morphometric analyses (total dendritic length, Sholl analysis, spine density) of cultured neurons; type: cell-based, C57BL/6 mice
Method: Hippocampal cultures and transfection. Hippocampal neurons from newborn C57BL/6 mice were cultured as known in the art. Experiments were done after a culturing period of 10 to 14 days in vitro (DIV). DNA transfection was done on DIV8 using Lipofectamine 2000 (Invitrogen, San Diego, CA). For the studies on dendrite morphology, neurons were analyzed 4-5 days after transfection.
Morphometric analyses. For 3D Sholl Analysis, total dendritic length and spine morphology were calculated using Object-Image freeware software with a specific set of macros (written by Dr. E. Ruthazer, McGill University, Quebec). Briefly, a z-Stack acquisition was imported, calibrated in Object-Image and manually traced. Total dendritic length was then computed. For Sholl analysis, the shell interval was set at 5 µm. All analyses were performed blind. In all in vitro experiments, for each condition, a minimum of 12 neurons from three independent preparations was analyzed. For the Golgi staining quantifications of 20 neurons for each condition from 4 different injected animals per viral construct were traced and analyzed.
Immunocytochemistry. […] For the morphometric analyses, fluorescence images were acquired using a confocal laser-scanning microscope TCS SP2 (Leica, Mannheim, Germany) equipped with an inverted fluorescence microscope DM IRE2 (Leica) and Leica confocal scan software. […]

Row | SMILES | VEGFD expression (mRNA) [1] | effect on the rVEGFD-induced rescue of dendrite length and complexity ([2]; neurons expressing CaMBP4 (and CaMKIVK75E), treated for 3 days with rVEGFD) | Sholl analysis ([2]; neurons expressing hrGFP, CaMBP4 or CaMKIVK75E, SB203580 without rVEGFD)
1 | C[C@]12N[C@H](Cc3ccccc31)c1ccccc12 [MK801] | significantly reduced the expression of VEGFD mRNA | – | –
2 | C[S+]([O-])c1ccc(-c2nc(-c3ccncc3)c(-c3ccc(F)cc3)[nH]2)cc1 (stereo not drawn) [SB203580] | – | severely compromised the ability of rVEGFD to rescue the impairment of dendrite length and complexity | no difference compared to the respective untreated controls
